{
  "source": "paper PMC4638363",
  "about": "“Linear Interaction Energy Based Prediction of Cytochrome P450 1A2 Binding Affinities with Reliability Estimation” (PLoS ONE, 2015)",
  "key": {"[1]": {"tested_on": "CYP 1A2", "experiment": "Source 1: Bayer HealthCare screen, phenacetin as substrate probe on pooled human liver microsomes", "details": "for ΔGbind^Obs: from literature IC50, Source 1; for ΔG bind (lit): from literature IC50, Source 1 (Ref. 57)"}, "[2]": {"tested_on": "CYP 1A2", "details": "cited from earlier work"}, "[3]": {"target": "T1, human CYP 1A2 (Homo sapiens, UniProt P05177)", "T1 sequence (P05177 1-516)": "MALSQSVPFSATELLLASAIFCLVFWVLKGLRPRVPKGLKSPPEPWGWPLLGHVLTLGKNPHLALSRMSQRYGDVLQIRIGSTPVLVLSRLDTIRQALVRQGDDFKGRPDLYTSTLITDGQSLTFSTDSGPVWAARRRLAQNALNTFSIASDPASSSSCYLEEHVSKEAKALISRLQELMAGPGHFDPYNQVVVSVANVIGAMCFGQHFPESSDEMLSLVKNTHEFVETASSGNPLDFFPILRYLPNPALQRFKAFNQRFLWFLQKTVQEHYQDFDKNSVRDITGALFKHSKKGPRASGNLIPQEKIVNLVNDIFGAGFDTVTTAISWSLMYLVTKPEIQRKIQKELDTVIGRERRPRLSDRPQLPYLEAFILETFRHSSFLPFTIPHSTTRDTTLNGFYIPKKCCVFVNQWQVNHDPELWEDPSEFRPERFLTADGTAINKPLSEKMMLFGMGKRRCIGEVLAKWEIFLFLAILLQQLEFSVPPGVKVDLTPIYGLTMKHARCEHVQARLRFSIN"}, "[4]": {"tested_on": "CYP 1A2", "details": "cited from earlier work", "remark": "listed apart in the source"}, "[5]": {"target": "T1, human CYP 1A2", "experiment": "in-house CYP 1A2 inhibition assay with 7-methoxyresorufin as substrate (resorufin fluorescence)", "details": "for ΔΔG bind: difference in ΔG bind between literature and in-house determined values; for ΔG bind (inhouse): from in-house IC50 via Cheng-Prusoff and RTln(Ki)"}, "[6]": {"target": "T1, human CYP 1A2", "details": "for ΔG bind (inhouse): human, 10 min, pH 7.4"}, "[7]": {"tested_on": "CYP 1A2", "details": "human"}, "[8]": {"tested_on": "CYP 1A2", "details": "for ΔGbind^Obs: training set, from literature IC50, Source 2"}, "[9]": {"tested_on": "CYP 1A2", "details": "cited from earlier work", "remark": "listed apart in the source"}, "[10]": {"tested_on": "recombinant CYP 1A2", "details": "human"}, "[11]": {"tested_on": "recombinant CYP 1A2", "details": "recombinant enzyme; cited from earlier work"}, "[12]": {"details": "Table A, Source 1, ref Bayer HealthCare databases for CYP inhibition (eTOX)"}, "[13]": {"details": "read-out: IC 50 (lit), Source 1, pooled human liver microsomes, phenacetin probe"}, "[14]": {"details": "Table A, Source 2, ref Cohen et al., Drug Metab. Dispos. 2003"}},
  "note": "Where two headings read alike, the source gives them in different places.",
  "data": [
    {"smiles": "C[C@]12CC[C@@H]3c4cc(F)c(O)cc4CC[C@H]3[C@@H]1CC[C@@H]2O", "note": "[Compound 20, 2-Fluoroestradiol]", "values": [
      {"measurement": "ΔGbind^Obs", "setting": "[1]; test set", "value": -28.1, "unit": "kJ/mol"},
      {"measurement": "IC50", "setting": "[2]; [12]", "value": 26.8, "unit": "µM"},
      {"measurement": "Residual (ΔGbind^Obs–ΔG bind ^Calc), error in prediction", "setting": "[3]; test set", "value": 7.0, "unit": "kJ/mol"}
    ]},
    {"smiles": "COc1ccccc1OCCNCC(O)COc1cccc2[nH]c3ccccc3c12", "note": "(stereo not drawn) [Compound 3, Carvedilol]", "values": [
      {"measurement": "Reported inhibition mechanism", "setting": "[4]; literature", "value": "Substrate^62"},
      {"measurement": "ΔG bind (lit)", "setting": "[1]", "value": -31.8, "unit": "kJ/mol"},
      {"measurement": "IC50", "setting": "[5]", "value": "5 ± 0.2", "unit": "µM"},
      {"measurement": "ΔΔG bind", "setting": "[5]", "value": 0.4, "unit": "kJ/mol"},
      {"measurement": "ΔG bind (inhouse)", "setting": "[5]", "value": "-32.2 ± 0.1", "unit": "kJ/mol"},
      {"measurement": "IC50", "setting": "[2]; [12]", "value": 5.1, "unit": "µM"},
      {"measurement": "IC50", "setting": "[2]; [13]", "value": 5.91, "unit": "µM"}
    ]},
    {"smiles": "Cc1cccc(Nc2ccccc2C(=O)O)c1C", "note": "[Compound 1, Mefenamic Acid]", "values": [
      {"measurement": "Reported inhibition mechanism", "setting": "[4]; literature", "value": "Competitive^60"},
      {"measurement": "ΔG bind (lit)", "setting": "[1]", "value": -29.7, "unit": "kJ/mol"},
      {"measurement": "ΔGbind^Obs", "setting": "[1]; training set", "value": -29.7, "unit": "kJ/mol"},
      {"measurement": "IC50", "setting": "[5]", "value": "19 ± 7", "unit": "µM"},
      {"measurement": "ΔΔG bind", "setting": "[5]", "value": -0.8, "unit": "kJ/mol"},
      {"measurement": "ΔG bind (inhouse)", "setting": "[5]", "value": "-28.9 ± 1.0", "unit": "kJ/mol"},
      {"measurement": "IC50", "setting": "[2]; [13]", "value": 14, "unit": "µM"},
      {"measurement": "Residual (ΔGbind^Obs—ΔGbind^Calc)", "setting": "[3]; training set", "value": 4.3, "unit": "kJ/mol"}
    ]},
    {"smiles": "Nc1c2c(nc3ccccc13)CCCC2", "note": "[Compound 2, Tacrine]", "values": [
      {"measurement": "Reported inhibition mechanism", "setting": "[4]", "value": "Substrate^61"},
      {"measurement": "IC50", "setting": "[5]", "value": "2.3 ± 1", "unit": "µM"},
      {"measurement": "IC50", "setting": "[2]; microsomes", "value": 5.2, "unit": "µM"},
      {"measurement": "ΔΔG bind", "setting": "[6]", "value": 2.1, "unit": "kJ/mol"},
      {"measurement": "ΔG bind (inhouse)", "setting": "[6]", "value": "-34.2 ± 1.2", "unit": "kJ/mol"},
      {"measurement": "Residual (ΔGbind^Obs—ΔGbind^Calc)", "setting": "[3]", "value": -2.8, "unit": "kJ/mol"},
      {"measurement": "ΔG bind (lit)", "setting": "[7]", "value": -32.1, "unit": "kJ/mol"},
      {"measurement": "ΔGbind^Obs", "setting": "[7]", "value": -32.2, "unit": "kJ/mol"}
    ]},
    {"smiles": "CC(C)NCC(O)COc1cccc2ccccc12", "note": "(stereo not drawn) [Compound 25, Propranolol]", "values": [
      {"measurement": "Reported inhibition mechanism", "setting": "[4]; literature", "value": "Substrate^72"},
      {"measurement": "ΔGbind^Obs", "setting": "[8]", "value": -32.9, "unit": "kJ/mol"},
      {"measurement": "IC50", "setting": "[9]; [14]", "value": 3.84, "unit": "µM"},
      {"measurement": "Residual (ΔGbind^Obs—ΔGbind^Calc)", "setting": "[3]; training set", "value": -1.1, "unit": "kJ/mol"}
    ]},
    {"smiles": "Cc1cccc(C)c1OCC(C)N", "note": "(stereo not drawn) [Compound 23, Mexiletine]", "values": [
      {"measurement": "Reported inhibition mechanism", "setting": "[4]; literature", "value": "Competitive^70"},
      {"measurement": "ΔGbind^Obs", "setting": "[8]", "value": -34.8, "unit": "kJ/mol"},
      {"measurement": "IC50", "setting": "[9]; [14]", "value": 1.84, "unit": "µM"},
      {"measurement": "Residual (ΔGbind^Obs—ΔGbind^Calc)", "setting": "[3]; training set", "value": -7.8, "unit": "kJ/mol"}
    ]},
    {"smiles": "O=C(O)c1cccnc1Nc1cccc(C(F)(F)F)c1", "note": "[Compound 16, Niflumic Acid]", "values": [
      {"measurement": "ΔGbind^Obs", "setting": "[1]; training set", "value": -30.2, "unit": "kJ/mol"},
      {"measurement": "IC50", "setting": "[2]; [12]", "value": 11.6, "unit": "µM"},
      {"measurement": "Residual (ΔGbind^Obs—ΔGbind^Calc)", "setting": "[3]; training set", "value": 2.9, "unit": "kJ/mol"}
    ]},
    {"smiles": "CCOc1ccc(NC(C)=O)cc1", "note": "[Compound 6, Phenacetin]", "values": [
      {"measurement": "Reported inhibition mechanism", "setting": "[4]; literature", "value": "Substrate^64"},
      {"measurement": "ΔG bind (lit)", "setting": "[8]; from literature IC50, Source 2 (Ref. 58)", "value": "[…]"},
      {"measurement": "ΔGbind^Obs", "setting": "[8]", "value": "[…]"},
      {"measurement": "IC50", "setting": "[9]; read-out: IC 50 (lit), Source 2, recombinant CYPs, phenacetin O-deethylation", "value": "[…]"},
      {"measurement": "Residual (ΔGbind^Obs—ΔGbind^Calc)", "setting": "[3]", "value": "[…]"}
    ]},
    {"smiles": "Oc1ccc2ccccc2c1", "note": "[Compound 10, 2-naphthol]", "values": [
      {"measurement": "IC50", "setting": "[5]", "value": "4.4 ± 1.2", "unit": "µM"},
      {"measurement": "ΔG bind (lit)", "setting": "[10]", "value": "-29.1 ± 0.2", "unit": "kJ/mol"},
      {"measurement": "ΔGbind^Obs", "setting": "[10]", "value": -29.1, "unit": "kJ/mol"},
      {"measurement": "IC50", "setting": "[11]", "value": "17 ± 1.5", "unit": "µM"},
      {"measurement": "ΔΔG bind", "setting": "[6]", "value": 3.4, "unit": "kJ/mol"},
      {"measurement": "ΔG bind (inhouse)", "setting": "[6]", "value": "-32.6 ± 0.7", "unit": "kJ/mol"},
      {"measurement": "Residual (ΔGbind^Obs–ΔG bind ^Calc), error in prediction", "setting": "[3]", "value": -6.5, "unit": "kJ/mol"}
    ]},
    {"smiles": "O=c1c(O)c(-c2ccc(O)c(O)c2)oc2cc(O)cc(O)c12", "note": "[Compound 14, Quercetin]", "values": [
      {"measurement": "Reported inhibition mechanism", "setting": "[4]; literature", "value": "Competitive^67"},
      {"measurement": "ΔGbind^Obs", "setting": "[1]; test set", "value": "[…]"},
      {"measurement": "IC50", "setting": "[2]; [12]", "value": "[…]"},
      {"measurement": "Residual (ΔGbind^Obs–ΔG bind ^Calc), error in prediction", "setting": "[3]; test set", "value": "[…]"}
    ]},
    {"smiles": "O=C1C[C@@H](c2ccc(O)cc2)Oc2cc(O)cc(O)c21", "note": "[Compound 17, Naringenin]", "values": [
      {"measurement": "Reported inhibition mechanism", "setting": "[4]; literature", "value": "Substrate^68"},
      {"measurement": "ΔGbind^Obs", "setting": "[1]; test set", "value": -30.0, "unit": "kJ/mol"},
      {"measurement": "IC50", "setting": "[2]; [12]", "value": 12.3, "unit": "µM"}
    ]},
    {"smiles": "COc1ccc2nc3ccc(=O)cc-3oc2c1", "note": "[7-Methoxyresorufin]", "values": [
      {"measurement": "K m", "setting": "[6]", "value": 2.5, "unit": "µM"}
    ]}
  ]
}
